Experimental data reported in ChEMBL document CHEMBL4000251, “Discovery of 4-chloro-2-(2,4-dichloro-6-methylphenoxy)-1-methyl-7-(pentan-3-yl)-1H-benzimidazole, a novel CRF1 receptor antagonist” (Bioorg Med Chem, 2017).

Assays:
[1] = AUC in rat at 1 mg/kg, po; assay type: ADME, organism-based; details: in vivo
[2] = Oral bioavailability in rat at 1 mg/kg; assay type: ADME, organism-based; details: in vivo

AUC [1]: 94.6 ng·h/mL
bioavailability [2]: 30.8%
Structure (SMILES): CCC(CC)c1ccc(Cl)c2nc(Oc3c(C)cc(Cl)cc3Cl)n(C)c12
